Test results reported in article PMC9525273 (Nature Communications, 2022).
Where “and” joins values, the source holds several entries; their conditions need not be identical. Equal entries are not always repeated. Where two headings read alike, the source gives them in different places.

Assays:
Assay in all cases: [Na+]cyt measurement (SBFI), Na+ dysregulation
Design in all cases: Final [Na+]cyt reached: unit not given here
[1] = tested on: isolated Dd2-Polδ-PfATP4^G358S P. falciparum trophozoites; type: cell-based, Plasmodium falciparum
Experimental: (§1) The ratio of the fluorescence intensity recorded at 340 nm and 380 nm (with an emission wavelength of 515 nm) was converted to [Na^+]cyt using a calibration procedure that entailed suspending parasites in solutions of varying [Na^+] containing ionophores. Fluorescence measurements and calibrations were performed at 37 °C, either with individual 1 mL suspensions using a PerkinElmer LS 50B fluorescence spectrometer (for resting [Na^+]cyt measurements for which the data are shown in Supplementary Fig. 7) or in 96-well plates using a Tecan Infinite M1000 PRO plate reader with i-control (version 1.12) software (all other [Na^+]cyt measurements).

[2] = tested on: isolated Dd2-Polδ P. falciparum trophozoites; type: cell-based, Plasmodium falciparum; conditions: for Final [Na+]cyt reached: Dd2-Polδ; for IC50: Plasmodium falciparum
Experimental: as §1

[3] = tested on: extracellular T. gondii tachyzoites expressing TgATP4^G419S-HA; type: cell-based, Toxoplasma gondii; conditions: TgATP4G419S-HA; for IC50: Toxoplasma gondii
Experimental: as §1

[4] = [(+)-SJ733] 156.3 nM, single experiments
[5] = [(+)-SJ733] 312.5 nM, single experiments
[6] = [(+)-SJ733] 625 nM, single experiments
[7] = [(+)-SJ733] 2500 nM, single experiments
[8] = [(+)-SJ733] 5000 nM, single experiments
[9] = [(+)-SJ733] 10000 nM, single experiments
[10] = [(+)-SJ733] 20000 nM, single experiments

N#Cc1cc(NC(=O)[C@H]2c3ccccc3C(=O)N(CC(F)(F)F)[C@@H]2c2cccnc2)ccc1F [(+)-SJ733]
Final [Na+]cyt reached ([1]; Dd2-Polδ-PfATP4G358S, [(+)-SJ733] 9.8 nM, MEAN): 28.4
Final [Na+]cyt reached ([1]; Dd2-Polδ-PfATP4G358S, [(+)-SJ733] 9.8 nM, single experiments): 25.4 and 25.6 and 34.3
Final [Na+]cyt reached ([1]; Dd2-Polδ-PfATP4G358S, [(+)-SJ733] 19.5 nM, MEAN): 28.2
Final [Na+]cyt reached ([1]; Dd2-Polδ-PfATP4G358S, [(+)-SJ733] 19.5 nM, single experiments): 24.8 and 26.3 and 33.5
Final [Na+]cyt reached ([1]; Dd2-Polδ-PfATP4G358S, [(+)-SJ733] 39.1 nM, MEAN): 28.7
Final [Na+]cyt reached ([1]; Dd2-Polδ-PfATP4G358S, [(+)-SJ733] 39.1 nM, single experiments): 26.5 and 26.8 and 32.9
Final [Na+]cyt reached ([1]; Dd2-Polδ-PfATP4G358S, [(+)-SJ733] 78.1 nM, MEAN): 29.0
Final [Na+]cyt reached ([1]; Dd2-Polδ-PfATP4G358S, [(+)-SJ733] 78.1 nM, single experiments): 26.6 and 27.0 and 33.4
Final [Na+]cyt reached ([1]; Dd2-Polδ-PfATP4G358S, [(+)-SJ733] 156.3 nM, MEAN): 28.6
Final [Na+]cyt reached ([1]; Dd2-Polδ-PfATP4G358S, [(+)-SJ733] 156.3 nM, single experiments): 25.8 and 27.2 and 32.8
Final [Na+]cyt reached ([1]; Dd2-Polδ-PfATP4G358S, [(+)-SJ733] 312.5 nM, MEAN): 25.7
Final [Na+]cyt reached ([1]; Dd2-Polδ-PfATP4G358S, [(+)-SJ733] 312.5 nM, single experiments): 25.5 and 26.1 and 32.5 and 18.8
Final [Na+]cyt reached ([1]; Dd2-Polδ-PfATP4G358S, [(+)-SJ733] 625 nM, MEAN): 26.8
Final [Na+]cyt reached ([1]; Dd2-Polδ-PfATP4G358S, [(+)-SJ733] 625 nM, single experiments): 26.0 and 26.8 and 34.1 and 20.2
Final [Na+]cyt reached ([1]; Dd2-Polδ-PfATP4G358S, [(+)-SJ733] 2500 nM, MEAN): 28.2
Final [Na+]cyt reached ([1]; Dd2-Polδ-PfATP4G358S, [(+)-SJ733] 2500 nM, single experiments): 27.1 and 27.5 and 36.9 and 21.3
Final [Na+]cyt reached ([1]; Dd2-Polδ-PfATP4G358S, [(+)-SJ733] 5000 nM, MEAN): 30.8
Final [Na+]cyt reached ([1]; Dd2-Polδ-PfATP4G358S, [(+)-SJ733] 5000 nM, single experiments): 29.9 and 28.6 and 41.3 and 23.6
Final [Na+]cyt reached ([1]; Dd2-Polδ-PfATP4G358S, [(+)-SJ733] 10000 nM, MEAN): 38.0
Final [Na+]cyt reached ([1]; Dd2-Polδ-PfATP4G358S, [(+)-SJ733] 10000 nM, single experiments): 34.4 and 33.8 and 55.9 and 28.0
Final [Na+]cyt reached ([1]; Dd2-Polδ-PfATP4G358S, [(+)-SJ733] 20000 nM, MEAN): 58.1
Final [Na+]cyt reached ([1]; Dd2-Polδ-PfATP4G358S, [(+)-SJ733] 40000 nM, MEAN): 76.7
Final [Na+]cyt reached ([1]; Dd2-Polδ-PfATP4G358S, [(+)-SJ733] 40000 nM, single experiments): 88.7 and 92.6 and 48.8
IC50 ([1]; Dd2-Polδ-PfATP4G358S, single experiments, source data of Table 1 (nM there), read-out: IC50 for Na+ dysregulation): > 20000 nM
IC50 ([1]; Plasmodium falciparum, DD2, 1.5 h, pH 7.1, Dd2-Polδ-PfATP4G358S, ~90 min exposure, 37 °C, pH 7.1, read-out: IC50 for Na+ dysregulation): > 10000 nM
IC50 ([1]; Plasmodium falciparum, DD2, Dd2-Polδ-PfATP4G358S, MEAN, source data of Table 1 (nM there), read-out: IC50 for Na+ dysregulation, MEAN): > 10000 nM
IC50 ([1]; Plasmodium falciparum, DD2, Dd2-Polδ-PfATP4G358S, single experiments, source data of Table 1 (nM there), read-out: IC50 for Na+ dysregulation): > 10000 nM
Final [Na+]cyt reached ([2]; [(+)-SJ733] 9.8 nM, MEAN): 24.0
Final [Na+]cyt reached ([2]; [(+)-SJ733] 19.5 nM, MEAN): 33.0
Final [Na+]cyt reached ([2]; [(+)-SJ733] 39.1 nM, MEAN): 53.8
Final [Na+]cyt reached ([2]; [(+)-SJ733] 78.1 nM, MEAN): 78.4
Final [Na+]cyt reached ([2]; [(+)-SJ733] 156.3 nM, MEAN): 97.5
Final [Na+]cyt reached [2, 4]: 122.9 and 77.5 and 89.5 and 99.9
Final [Na+]cyt reached ([2]; [(+)-SJ733] 312.5 nM, MEAN): 102.1
Final [Na+]cyt reached [2, 5]: 131.1 and 85.2 and 96.4 and 95.7
Final [Na+]cyt reached ([2]; [(+)-SJ733] 625 nM, MEAN): 112.5
Final [Na+]cyt reached [2, 6]: 132.7 and 104.6 and 109.2 and 103.6
Final [Na+]cyt reached ([2]; [(+)-SJ733] 2500 nM, MEAN): 112.4
Final [Na+]cyt reached [2, 7]: 123.5 and 114.1 and 104.4 and 107.6
Final [Na+]cyt reached ([2]; [(+)-SJ733] 5000 nM, MEAN): 111.0
Final [Na+]cyt reached [2, 8]: 138.3 and 95.8 and 115.2 and 94.7
Final [Na+]cyt reached ([2]; [(+)-SJ733] 10000 nM, MEAN): 115.2
Final [Na+]cyt reached [2, 9]: 139.1 and 108.5 and 119.1 and 94.2
Final [Na+]cyt reached ([2]; [(+)-SJ733] 20000 nM, MEAN): 108.1
Final [Na+]cyt reached [2, 10]: 139.5 and 98.0 and 111.1 and 84.0
IC50 ([2]; DD2, 1.5 h, pH 7.1, Dd2-Polδ, ~90 min exposure, 37 °C, pH 7.1, mean ± SEM, read-out: IC50 for Na+ dysregulation): 55 ± 15 nM
IC50 ([2]; DD2, Dd2-Polδ, MEAN, source data of Table 1 (nM there), read-out: IC50 for Na+ dysregulation, MEAN): 55 nM
difference in potency between the drugs ([2]; vs cipargamin, [Na+]cyt assays (P. falciparum, T. gondii) and P. falciparum proliferation assays): > 6 fold
Final [Na+]cyt reached ([3]; [(+)-SJ733] 19.5 nM, MEAN): 11.4
Final [Na+]cyt reached ([3]; [(+)-SJ733] 39.1 nM, MEAN): 14.1
Final [Na+]cyt reached ([3]; [(+)-SJ733] 39.1 nM, single experiments): 15.8 and 12.1 and 14.4
Final [Na+]cyt reached ([3]; [(+)-SJ733] 78.1 nM, MEAN): 14.7
Final [Na+]cyt reached ([3]; [(+)-SJ733] 78.1 nM, single experiments): 18.4 and 12.6 and 13.2
Final [Na+]cyt reached ([3]; [(+)-SJ733] 156.3 nM, MEAN): 13.7
Final [Na+]cyt reached [3, 4]: 14.7 and 11.2 and 15.2
Final [Na+]cyt reached ([3]; [(+)-SJ733] 312.5 nM, MEAN): 13.9
Final [Na+]cyt reached [3, 5]: 15.6 and 11.4 and 14.7
Final [Na+]cyt reached ([3]; [(+)-SJ733] 625 nM, MEAN): 13.0
Final [Na+]cyt reached [3, 6]: 14.4 and 12.2 and 12.5
Final [Na+]cyt reached ([3]; [(+)-SJ733] 2500 nM, MEAN): 13.7
Final [Na+]cyt reached [3, 7]: 15.4 and 12.6 and 13.0
Final [Na+]cyt reached ([3]; [(+)-SJ733] 5000 nM, MEAN): 13.4
Final [Na+]cyt reached [3, 8]: 14.6 and 12.4 and 13.1
Final [Na+]cyt reached ([3]; [(+)-SJ733] 10000 nM, MEAN): 12.1
Final [Na+]cyt reached [3, 9]: 13.0 and 11.9 and 11.5
Final [Na+]cyt reached ([3]; [(+)-SJ733] 20000 nM, MEAN): 12.6
Final [Na+]cyt reached [3, 10]: 13.7 and 11.8 and 12.3
Final [Na+]cyt reached ([3]; [(+)-SJ733] 40000 nM, MEAN): 11.6
Final [Na+]cyt reached ([3]; [(+)-SJ733] 40000 nM, single experiments): 12.7 and 10.4 and 11.7
IC50 ([3]; 1.5 h, ~90 min exposure, 37 °C, pH 7.1, read-out: IC50 for Na+ dysregulation): > 40000 nM
IC50 ([3]; MEAN, source data of Table 1 (nM there), read-out: IC50 for Na+ dysregulation, MEAN): > 40000 nM
IC50 ([3]; single experiments, source data of Table 1 (nM there), read-out: IC50 for Na+ dysregulation): > 40000 nM
